Molecular target: human APJ receptor (Homo sapiens (Human), UniProt P35414)
Assay: Intracellular cAMP accumulation assay (APJ hcAMP, HTRF)
Type: cell-based
Conditions: HEK293 cells stably expressing human APJ receptor; inhibition of forskolin-mediated cAMP production; read-out: Human APJ cAMP EC50 Potency range
Outline: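 HEK293 cells stably expressing human APJ, 5,000 per well, incubated 30 min at rt with compound, […] and 2 μM forskolin. cAMP measured by HTRF against a cAMP standard curve as inhibition of forskolin-driven production. EC50 from variable-slope sigmoidal fit.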

human APJ receptor, sequence (P35414 whole entry): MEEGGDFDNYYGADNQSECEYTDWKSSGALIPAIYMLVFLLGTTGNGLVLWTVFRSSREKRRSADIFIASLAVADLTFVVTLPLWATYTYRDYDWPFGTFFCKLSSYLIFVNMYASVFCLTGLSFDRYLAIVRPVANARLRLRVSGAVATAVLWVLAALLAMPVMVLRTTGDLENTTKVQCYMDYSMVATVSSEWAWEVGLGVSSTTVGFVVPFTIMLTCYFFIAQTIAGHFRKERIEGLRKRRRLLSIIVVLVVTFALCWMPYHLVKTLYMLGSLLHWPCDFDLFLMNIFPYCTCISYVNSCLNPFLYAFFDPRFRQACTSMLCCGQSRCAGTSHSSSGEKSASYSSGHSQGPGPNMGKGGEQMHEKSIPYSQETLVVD

EC50, 0.01 to 10 nM:
CCCCc1nc(=O)c(S(=O)(=O)c2ccc(-c3c[nH]nc3C)cc2)c(O)n1[C@@H](CC)c1cccc(C#N)c1 [Example 495, 3-[(1S)-1-{2-butyl-6-hydroxy-5-[4-(3-methyl-1H-pyrazol-4-yl)benzenesulfonyl]-4-oxo-1,4-dihydropyrimidin-1-yl}propyl]benzonitrile]
Cc1cnccc1-c1ccc(S(=O)(=O)c2c(O)n([C@H](c3cccc(C#N)c3)C3CC3)c(CC3CC3)nc2=O)cc1 [Example 496, 3-[(S)-cyclopropyl[2-(cyclopropylmethyl)-6-hydroxy-5-[4-(3-methylpyridin-4-yl)benzenesulfonyl]-4-oxo-1,4-dihydropyrimidin-1-yl]methyl]benzonitrile]
Cc1ncccc1-c1ccc(S(=O)(=O)c2c(O)n([C@H](c3cccc(C#N)c3)C3CC3)c(CC3CC3)nc2=O)cc1 [Example 497, 3-[(S)-cyclopropyl[2-(cyclopropylmethyl)-6-hydroxy-5-[4-(2-methylpyridin-3-yl)benzenesulfonyl]-4-oxo-1,4-dihydropyrimidin-1-yl]methyl]benzonitrile]
Cc1c(-c2ccc(S(=O)(=O)c3c(O)n([C@H](c4cccc(C#N)c4)C4CC4)c(CC4CC4)nc3=O)cc2)ccnc1F [Example 498, 3-[(S)-cyclopropyl[2-(cyclopropylmethyl)-5-[4-(2-fluoro-3-methylpyridin-4-yl)benzenesulfonyl]-6-hydroxy-4-oxo-1,4-dihydropyrimidin-1-yl]methyl]benzonitrile]
Cc1nc(F)ccc1-c1ccc(S(=O)(=O)c2c(O)n([C@H](c3cccc(C#N)c3)C3CC3)c(CC3CC3)nc2=O)cc1 [Example 499, 3-[(S)-cyclopropyl[2-(cycIopropylmethyl)-5-[4-(6-fluoro-2-methylpyridin-3-yl)benzenesulfonyl]-6-hydroxy-4-oxo-1,4-dihydropyrimidin-1-yl]methyl]benzonitrile]
N#Cc1cccc([C@H](C2CC2)n2c(CC3CC3)nc(=O)c(S(=O)(=O)c3ccc(-c4ccc(F)cc4C(N)=O)cc3)c2O)c1 [Example 500, 4′-({1-[(S)-(3-cyanophenyl)(cyclopropyl)methyl]-2-(cyclopropylmethyl)-6-hydroxy-4-oxo-1,4-dihydropyrimidin-5-yl}sulfonyl)-4-fluoro-[1,1′-biphenyl]-2-carboxamide]
CCCCc1nc(=O)c(S(=O)(=O)c2ccc(-c3ccccc3C(=O)OC)cc2)c(O)n1[C@@H](CC)c1cccc(C#N)c1 [Example 501, methyl 4′-({2-butyl-1-[(1S)-1-(3-cyanophenyl)propyl]-6-hydroxy-4-oxo-1,4-dihydropyrimidin-5-yl}sulfonyl)-[1,1′-biphenyl]-2-carboxylate]
CC[C@@H](c1cc(F)cc(C#N)c1)n1c(CC2CC2)nc(=O)c(S(=O)(=O)c2ccc(-c3ccccc3C(N)=O)cc2)c1O [Example 502, 4′-({1-[(1S)-1-(3-cyano-5-fluorophenyl)propyl]-2-(cyclopropylmethyl)-6-hydroxy-4-oxo-1,4-dihydropyrimidin-5-yl}sulfonyl)-[1,1′-biphenyl]-2-carboxamide]
CCCCc1nc(=O)c(S(=O)(=O)c2ccc(-c3ccc(F)nc3F)cc2)c(O)n1[C@@H](CC)c1cccc(C#N)c1 [Example 503, 3-[(1S)-1-{2-butyl-5-[4-(2,6-difluoropyridin-3-yl)benzenesulfonyl]-6-hydroxy-4-oxo-1,4-dihydropyrimidin-1-yl}propyl]benzonitrile]
CCCCc1nc(=O)c(S(=O)(=O)c2ccc(-c3cccn(C)c3=O)cc2)c(O)n1[C@@H](CC)c1cccc(C#N)c1 [Example 504, 3-[(1S)-1-{2-butyl-6-hydroxy-5-[4-(1-methyl-2-oxo-1,2-dihydropyridin-3-yl)benzenesulfonyl]-4-oxo-1,4-dihydropyrimidin-1-yl}propyl]benzonitrile]
CCCCc1nc(=O)c(S(=O)(=O)c2ccc(-c3cccnc3F)cc2)c(O)n1[C@@H](CC)c1cccc(C#N)c1 [Example 505, 3-[(1S)-1-{2-butyl-5-[4-(2-fluoropyridin-3-yl)benzenesulfonyl]-6-hydroxy-4-oxo-1,4-dihydropyrimidin-1-yl}propyl]benzonitrile]
CCCCc1nc(=O)c(S(=O)(=O)c2ccc(-c3ccnc(F)c3F)cc2)c(O)n1[C@@H](CC)c1cccc(C#N)c1 [Example 506, 3-[(1S)-1-{2-butyl-5-[4-(2,3-difluoropyridin-4-yl)benzenesulfonyl]-6-hydroxy-4-oxo-1,4-dihydropyrimidin-1-yl}propyl]benzonitrile]
CCCCc1nc(=O)c(S(=O)(=O)c2ccc(-c3ccccc3C(=O)NC)cc2)c(O)n1[C@@H](CC)c1cccc(C#N)c1 [Example 507, 4′-({2-butyl-1-[(1S)-1-(3-cyanophenyl)propy1]-6-hydroxy-4-oxo-1,4-dihydropyrimidin-5-yl}sulfonyl)-N-methyl-[1,1′-biphenyl]-2-carboxamide]
CCCCc1nc(=O)c(S(=O)(=O)c2ccc(-c3cnc(OC)nc3OC)cc2)c(O)n1[C@@H](CC)c1cccc(C#N)c1 [Example 508, 3-[(1S)-1-{2-butyl-5-[4-(2,4-dimethoxypyrimidin-5-yl)benzenesulfonyl]-6-hydroxy-4-oxo-1,4-dihydropyrimidin-1-yl}propyl]benzonitrile]
CCCCc1nc(=O)c(S(=O)(=O)c2ccc(-c3cccnc3C(N)=O)cc2)c(O)n1[C@@H](CC)c1cccc(C#N)c1 [Example 509, 3-[4-({2-butyl-1-[(1S)-1-(3-cyanophenyl)propyl]-6-hydroxy-4-oxo-1,4-dihydropyrimidin-5-yl}sulfonyl)phenyl] pyridine-2-carboxamide]
CCCCc1nc(=O)c(S(=O)(=O)c2ccc(-c3ccnc4[nH]ccc34)cc2)c(O)n1[C@@H](CC)c1cccc(C#N)c1 [Example 510, 3-[(1S)-1-[2-buty1-6-hydroxy-4-oxo-5-(4-{1H-pyrrolo[2,3-b]pyridin-4-yl}benzenesulfonyl)-1,4-dihydropyrimidin-1-yl]propyl]benzonitrile]
CCCCc1nc(=O)c(S(=O)(=O)c2ccc(-c3ccccc3F)cc2)c(O)n1[C@@H](CC)c1cccc(C#N)c1 [Example 511, 3-[(1S)-1-[2-butyl-5-({2′-fluoro-[1,1′-biphenyl]-4-yl}sulfonyl)-6-hydroxy-4-oxo-1,4-dihydropyrimidin-1-yl]propyl]benzonitrile]
CCCCc1nc(=O)c(S(=O)(=O)c2ccc(-c3ccncc3F)cc2)c(O)n1[C@@H](CC)c1cccc(C#N)c1 [Example 512, 3-[(1S)-1-{2-butyl-5-[4-(3-fluoropyridin-4-yI)benzenesulfonyl]-6-hydroxy-4-oxo-1,4-dihydropyrimidin-1-yl}propyl]benzonitrile]
CCCCc1nc(=O)c(S(=O)(=O)c2ccc(-c3ccccc3C(=O)N(C)C)cc2)c(O)n1[C@@H](CC)c1cccc(C#N)c1 [Example 513, 4′-({2-butyl-1-[(1S)-1-(3-cyanophenyl)propyl]-6-hydroxy-4-oxo-1,4-dihydropyrimidin-5-yl}sulfonyl)-N,N-dimethyl-[1,1′-biphenyl]-2-carboxamide]

Reference: patent US10508104B2, “6-hydroxy-5-(phenyl/heteroarylsulfonyl)pyrimidin-4(1H)-one as APJ agonists” (Bristol-Myers Squibb Company, priority 2016, dated 2019)
